Measurements: ChEMBL document CHEMBL1201862, “PubChem BioAssay data set” (2004)
The source made the active and inactive calls. Rule as the data show it, for most assays here: actives have a measured EC50 and inactives only a lower limit.

How the values were obtained:
[1] = molecular target: T1, Heat shock factor protein 1 (Mus musculus, UniProt P38532); assay: HSF1 potentiators in luciferase reporter cells, confirmation, cell-based, NIH3T3, luminescence, dose retest (AID 435004); assay type: functional;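 also: stress induced by proteasome inhibitor MG132 added 30 min after compound; luciferase reporter driven by HSF1 response element in NIH3T3 cells; actives raise luminescence as potentiators of the MG132 stress response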
T1 sequence (P38532 whole entry): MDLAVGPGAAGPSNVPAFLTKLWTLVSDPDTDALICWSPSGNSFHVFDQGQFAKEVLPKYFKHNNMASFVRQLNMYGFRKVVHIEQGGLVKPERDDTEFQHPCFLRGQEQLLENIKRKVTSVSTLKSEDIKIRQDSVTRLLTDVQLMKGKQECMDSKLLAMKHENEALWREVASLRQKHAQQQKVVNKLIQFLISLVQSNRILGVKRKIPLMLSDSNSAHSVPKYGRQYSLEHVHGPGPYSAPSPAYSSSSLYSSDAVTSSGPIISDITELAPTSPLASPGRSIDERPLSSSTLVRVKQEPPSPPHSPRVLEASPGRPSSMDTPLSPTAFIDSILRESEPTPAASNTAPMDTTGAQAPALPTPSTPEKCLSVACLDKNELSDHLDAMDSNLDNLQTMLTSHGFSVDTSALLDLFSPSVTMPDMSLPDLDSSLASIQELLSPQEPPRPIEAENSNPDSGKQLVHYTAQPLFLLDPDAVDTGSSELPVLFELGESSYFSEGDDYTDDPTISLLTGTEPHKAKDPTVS

[2] = microbe, parasite or virus in culture; assay type: functional; conditions: Mycobacterium tuberculosis
[3] = test system: INS1; assay: beta cell apoptosis inhibitors, cytokine rescue, dose response, luminescence, retest (AID 449756); assay type: functional, cell-based; conditions: Rattus norvegicus;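 also: cell death triggered by IL-1 beta plus TNF-alpha plus IFN-gamma mixture; protective hits raise ATP signal compared with cytokine alone wells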
[4] = NIH-3T3 fibroblast cytotoxicity, dose response, cytotoxicity control, cell-based, fluorescence, Alamar Blue, secondary assay (AID 2327); assay type: functional;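 also: NIH-3T3 mouse fibroblasts cultured with fluconazole at 8 µg/mL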
[5] = C. albicans growth with fluconazole, confirmation, fluorescence, retest (AID 2467); assay type: functional, cell-based
[6] = molecular target: T2, Rac GTPase-activating protein 1 (Homo sapiens, UniProt Q9H0H5); assay: MgcRacGAP GTPase-activating activity inhibitors, confirmation, biochemical, ADP Hunter fluorescence, primary and confirmatory (AID 624330); assay type: functional
T2 sequence (Q9H0H5 whole entry): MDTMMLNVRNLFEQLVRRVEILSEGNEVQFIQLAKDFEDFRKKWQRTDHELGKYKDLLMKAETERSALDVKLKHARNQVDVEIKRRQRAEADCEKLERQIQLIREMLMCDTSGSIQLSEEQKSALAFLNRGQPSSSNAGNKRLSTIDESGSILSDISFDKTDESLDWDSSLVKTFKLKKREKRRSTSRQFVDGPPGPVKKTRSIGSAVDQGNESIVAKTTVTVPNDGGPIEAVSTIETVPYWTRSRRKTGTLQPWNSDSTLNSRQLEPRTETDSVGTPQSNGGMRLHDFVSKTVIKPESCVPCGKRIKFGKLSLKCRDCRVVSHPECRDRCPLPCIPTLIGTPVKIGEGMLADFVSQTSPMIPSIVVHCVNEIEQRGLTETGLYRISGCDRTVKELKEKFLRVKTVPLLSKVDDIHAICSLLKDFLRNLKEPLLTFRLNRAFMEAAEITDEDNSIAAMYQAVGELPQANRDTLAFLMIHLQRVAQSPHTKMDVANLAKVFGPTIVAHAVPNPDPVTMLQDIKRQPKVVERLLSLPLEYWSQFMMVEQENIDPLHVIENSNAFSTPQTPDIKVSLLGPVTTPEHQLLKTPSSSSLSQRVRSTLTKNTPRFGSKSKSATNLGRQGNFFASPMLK

[7] = inhibitors of firefly luciferase expression or activity, dose response, H4 neuroglioma cells, luminescence (AID 1990); assay type: functional, cell-based
[8] = Luminescence Cell-Based Dose Response HTS to Identify Inhibitors of 5'UTR Stem-Loop Driven Prion Protein mRNA Translation in H4 Neuroglioblastoma Cells. [Related pubchem assays: 1827 (Project Summary), 1813 (Primary HTS)]; assay type: functional
[9] = inhibitors of SNCA 5'UTR-driven reporter translation, confirmation, H4 neuroglioma cells, luminescence (AID 1988); assay type: functional, cell-based
[10] = growth suppression of PTEN-null colon cells, dose response, cell-based, HCT116 PTEN knockout (AID 1047); assay type: functional;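 also: HCT116 colon tumor cells with PTEN knocked out; cells exposed to compound for 60 hours before readout; potency for loss of cell viability measured by luminescence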
[11] = growth suppression of beta-catenin-knockout colon cells, dose response, cell-based, HCT116, human colon tumor (AID 1045); assay type: functional;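 also: HCT116 colon tumor cells with beta catenin knocked out; cells exposed to compound for 60 hours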
[12] = Luminescence Cell-Based Dose Confirmation HTS to Identify Activators of 5'UTR Stem-Loop Driven Alpha-Synuclein mRNA Translation in H4 Neuroglioblastoma Cells. [Related pubchem assays: 1829 (Project Summary), 1814 (Primary HTS)]; assay type: functional
[13] = Luminescence Cell-Based Dose Response HTS to Identify Activators of Luciferase Translation or Activity in H4 […] Cells. [Related pubchem assays: 1829 (Project Summary), 1814 (Primary HTS)]; assay type: functional
[14] = test system: H4; assay: Luminescence Cell-Based Dose Response HTS to Identify Activators of 5'UTR Stem-Loop Driven Prion Protein mRNA Translation in H4 Neuroglioblastoma Cells. [Related pubchem assays: 1829 (Project Summary), 1814 (Primary HTS)]; assay type: functional; conditions: Homo sapiens
[15] = Luminescence Cell-Based Dose Retest to Confirm Inhibitors of Cancer Stem Cells. [Related pubchem assays (depositor defined):AID2717, AID2721]; assay type: functional; conditions: Homo sapiens
[16] = inhibitors of intracellular T. cruzi replication, confirmation, NIH3T3 host cells, beta-gal luminescence (AID 2044); assay type: functional, cell-based;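 also: intracellular parasites grown in NIH/3T3 mouse fibroblasts as host cells; luminescent beta-galactosidase reporter signal from transgenic T. cruzi replicating inside host cells; inhibitors lower the luminescence signal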
[17] = cytotoxicity toward NIH3T3 fibroblasts, dose response, counter-screen, cell-based, ATP luminescence, mouse fibroblasts (AID 2010); assay type: functional;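 also: cells exposed to compound for about 90 hours before reading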
[18] = molecular target: T3, Corticotropin-releasing factor receptor 2/Corticotropin-releasing factor-binding protein (Homo sapiens, UniProt P24387+Q13324); assay: Dose Response confirmation of uHTS hits for small molecule antagonists of the CRF-binding protein and CRF-R2 receptor complex.; assay type: functional; conditions: read-out: IC50_Mean
T3 sequence (Q13324 whole entry): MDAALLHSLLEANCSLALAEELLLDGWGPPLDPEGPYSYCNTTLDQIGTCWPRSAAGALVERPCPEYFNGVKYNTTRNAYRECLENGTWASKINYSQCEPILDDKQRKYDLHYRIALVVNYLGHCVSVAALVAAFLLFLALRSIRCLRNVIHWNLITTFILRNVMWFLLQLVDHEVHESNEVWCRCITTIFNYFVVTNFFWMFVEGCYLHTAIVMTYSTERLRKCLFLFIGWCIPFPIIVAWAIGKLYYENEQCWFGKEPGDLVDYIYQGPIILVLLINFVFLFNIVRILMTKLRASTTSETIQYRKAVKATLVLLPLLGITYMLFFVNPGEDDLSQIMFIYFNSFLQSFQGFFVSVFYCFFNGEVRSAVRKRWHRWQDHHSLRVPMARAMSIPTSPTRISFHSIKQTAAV
T3 sequence (P24387 whole entry): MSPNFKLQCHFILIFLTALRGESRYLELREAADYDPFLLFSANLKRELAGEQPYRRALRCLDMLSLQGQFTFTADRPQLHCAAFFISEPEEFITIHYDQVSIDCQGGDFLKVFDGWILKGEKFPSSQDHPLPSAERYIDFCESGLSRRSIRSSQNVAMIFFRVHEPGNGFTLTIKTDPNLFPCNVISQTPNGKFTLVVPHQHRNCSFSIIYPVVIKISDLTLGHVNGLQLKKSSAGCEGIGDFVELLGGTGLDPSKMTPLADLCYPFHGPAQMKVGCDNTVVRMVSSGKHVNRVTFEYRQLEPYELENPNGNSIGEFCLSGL

[19] = molecular target: T3, Corticotropin-releasing factor receptor 2/Corticotropin-releasing factor-binding protein; assay: activators of CRF receptor 2 with binding protein – uHTS hits, confirmation (AID 602473); assay type: functional; conditions: read-out: EC50_Mean

In the case of `COCCCNc1nc2nonc2nc1N1CCN(Cc2cccc(C)c2)CC1`, the EC50 [1] is reported as > 260 µM (inactive).
With `Cc1ccc(S(=O)(=O)N(CC(=O)NCc2ccco2)Cc2ccc(F)cc2)cc1` the EC50 [1] was > 260 µM (inactive).
For `Cc1ccc(C(=O)c2cc(C)sc2NC(=O)CN2CCN(C(=O)c3ccco3)CC2)cc1`, the CC50 [2] was 23.4 µM (active).
With `N=C(NOC(=O)c1cccc(Cn2cc(C(F)(F)F)ccc2=O)c1)c1ccccc1` the AC50 [3] was 7.96 µM (active).
With `Nc1ccc(N2CCN(c3cccc(Cl)c3)CC2)cc1` the EC50 [4] was > 150 µM (inactive), the EC50 [5] was > 38 µM (not active) and the IC50 [6] was 21 µM (active).
With `Cc1oc(-c2ccccc2F)nc1CS(=O)(=O)CC(=O)NCCCN1CCN(C)CC1` the EC50 [1] was > 260 µM (inactive).
With `CC(OC(=O)c1oc2ccccc2c1COc1ccccc1)C(N)=O` (stereo not given) the EC50 [4] was 19.8 µM (inconclusive), the EC50 [7] was 26.7 µM (active) and the EC50 [8] was > 120 µM (not active). For the same compound, the EC50 [9] was 26.1 µM (active) and the EC50 [5] was > 38 µM (not active).
For `CCN1CCN(CCCNC(=O)c2ccc(/C=C3/Oc4ccccc4N(Cc4cccc(C)c4)C3=O)cc2)CC1`, the EC50 [7] was > 120 µM (not active), the EC50 [8] was > 120 µM (not active) and the EC50 [9] was 13.9 µM (active). The CC50 [2] was 5.99 µM (active).
With `Cc1cc(OCCCCCNCCO)cc(C)c1Cl` the EC50 [10] was 17.8 µM (active) and the EC50 [11] was 17.6 µM (active).
For `O=[N+]([O-])c1ccc(S(=O)(=O)N2CCSC2c2ccco2)cc1` (stereo not given), the EC50 [1] was > 260 µM (inactive).
For `CC(C)=CCC/C(C)=C/CC(C)(C)CNCCN1CCNCC1`, the EC50 [12] was > 120 µM (not active), the EC50 [13] was > 120 µM (not active) and the EC50 [14] was > 120 µM (not active). The EC50 [10] was 6.28 µM (active) and the EC50 [11] was 5.89 µM (active).
With `O=C(Nc1ccccc1O)C(c1ccccc1)c1ccccc1` the AC50 [3] was 2.92 µM (active).
For `c1ccc(COc2ccccc2CNC2CCCC2)cc1`, the EC50 [1] was > 260 µM (inactive).
With `O=C(/C=C/c1ccncc1)c1ccc(NC(=O)c2ccccc2F)cc1` the EC50 [10] was 1.12 µM (active), the EC50 [11] was 0.813 µM (active) and the AC50 [15] was 5.5 µM (active).
With `O=C(NN=C1c2ccccc2-c2ccccc21)c1cccc(Br)c1` the CC50 [2] was 15.1 µM (active), the EC50 [10] was 4.02 µM (active) and the EC50 [11] was 4 µM (active).
For `Cc1ccc(-n2nc(-c3ccco3)cc2C(=O)NCc2cccnc2)cc1`, the EC50 [7] was > 120 µM (not active), the EC50 [8] was 38.1 µM (active) and the EC50 [9] was > 120 µM (not active).
For `S=c1[nH]cc(-c2ccccc2)n1-c1ccccc1Cl`, the EC50 [1] was > 260 µM (inactive).
With `Cc1ccc(CS(=O)(=O)Cc2ccc(C(=O)NC3CCCCCC3)o2)cc1` the EC50 [7] was 24.3 µM (active), the EC50 [8] was > 120 µM (not active) and the EC50 [9] was 22.5 µM (active).
In the case of `O=C(Nc1cccc(Cl)c1)c1cccc(Oc2ccc([N+](=O)[O-])cc2Cl)c1`, the EC50 [10] is reported as 16.1 µM (active) and the EC50 [11] is reported as 17.1 µM (active).
For `COc1ccc(C2c3c(oc4ccccc4c3=O)C(=O)N2c2ccccn2)cc1OC` (stereo not given), the EC50 [10] was 17.2 µM (active) and the EC50 [11] was 20.7 µM (active).
For `CCC1(CC)NC(=O)N(CC(=O)N2N=C(c3ccc(Cl)cc3)CC2c2ccco2)C1=O` (stereo not given), the EC50 [7] was > 120 µM (not active), the EC50 [8] was > 120 µM (not active) and the EC50 [9] was > 120 µM (not active).
In the case of `O=[N+]([O-])c1ccc(COc2ccc(-c3[nH]ncc3-c3ccc(Cl)cc3)c(O)c2)cc1`, the CC50 [2] is reported as > 40 µM (active) and the AC50 [15] is reported as 4.02 µM (active).
In the case of `CCN1CCN(c2ccc(NC(=O)CCc3c(C)nc4c(-c5ccc(F)cc5)c(C)nn4c3C)cc2)CC1`, the EC50 [16] is reported as 1.48 µM (active), the EC50 [17] is reported as 32.4 µM (active) and the AC50 [15] is reported as 2.15 µM (active).
In the case of `COc1ccc(CSc2nc(N3CCOCC3)c3c(c2C#N)CC(C)(C)OC3)cc1`, the EC50 [7] is reported as 18.5 µM (active), the EC50 [8] is reported as > 120 µM (not active) and the EC50 [9] is reported as > 120 µM (not active). The EC50 [16] was 2.52 µM (active) and the EC50 [17] was > 60 µM (not active).
For `CCOc1ccc(Nc2nc(Cc3nnc(SCC(=O)c4ccc(C)c(C)c4)o3)cs2)cc1`, the AC50 [3] was 10.4 µM (active).
With `CCn1c(C(=O)O)c(CC(=O)Nc2cccc(C(F)(F)F)c2)c2ccccc21` the AC50 [15] was 15.3 µM (active).
For `Cc1c(Cl)ccc2c1NC(=O)C21NC(CCC(N)=O)[C@H]2C(=O)N(c3ccc(Cl)cc3)C(=O)[C@H]21` (stereo not given in full), the EC50 [1] was > 260 µM (inactive), the IC50 [18] was > 47.1 µM (inactive) and the EC50 [19] was > 53 µM (inactive).
For `Cc1ccc2c(CN3CCN(S(=O)(=O)/C=C/c4ccccc4)CC3)cc(=O)oc2c1`, the EC50 [1] was > 260 µM (inactive).
For `CC1(C)Cc2c(c(N3CCOCC3)nc3sc4c(NCc5ccccc5)nnnc4c23)CS1`, the EC50 [7] was 25 µM (active), the EC50 [8] was 20.8 µM (active) and the EC50 [9] was 10.6 µM (active). For the same compound, the EC50 [16] was 1.13 µM (active) and the EC50 [17] was > 60 µM (not active).
With `Cc1cccc(N/N=C/c2ccccc2O)c1` the AC50 [15] was 6.21 µM (active).
With `CCOc1ccc(/C=N/NC(=O)C(C)N(c2ccc(OC)cc2)S(C)(=O)=O)cc1` (stereo not given) the EC50 [1] was > 260 µM (inactive).
